Data published in patent US9566265B2, “Carbazole compounds and therapeutic uses of the compounds” (Incuron, LLC, priority 2008, dated 2017).
Values after ≈ are worked out from the molar mass of the structure shown. Like-named read-outs stand apart in the source and are kept apart here.

Experiments:
[1] = system: C. albicans; assay: microbe, parasite or virus in culture; assay type: cell-based; conditions: Candida albicans
From the text: Candida spp. strains: 20 Candida spp. clinical isolates and one laboratory control strain (C. albicans SC5314) was used in the study. In the collection were included:
5 C. albicans isolates, two wild type strain (SC5314 and ATCC 36082), one echinocandin resistant isolate (M205) (6), and two fluconazole resistant clinical isolates (3795 and 3184) (7).

[2] = system: clinical and laboratory fungal strains; assay: in vitro susceptibility, summaries over groups of fungal strains; assay type: cell-based, Aspergillus spp., yeast
From the text: Aspergillus spp. […] Moreover, there were no MIC differences between susceptible and azole or echinocandin resistant strains (Table 1).
On average, yeast MICs were 8-fold lower than Aspergillus spp. MIC (Table 1). MICs obtained for Example 15 are compatible or better than MICs for conventional antifungal drugs.

[3] = system: A. flavus; assay: in vitro susceptibility CLSI M38A2, MIC; conditions: Aspergillus flavus
From the text: Eight Aspergillus spp. strains were used throughout the study. Six A. fumigatus, one A. flavus and one A. terreus also were used. The A. fumigatus group included two itraconazole-resistant strains (RIT13 and RIT5 strains) (1), one triazole cross-resistant strain (MUT10) (2, 3), one echinocandin cross-resistant strain (EMFRS678P) (4), and 2 wild type susceptible isolates (R21 and ATCC13073).

For `CCN(CC)CCn1c2ccc3c(c2c2c4c(ccc21)C(=O)CC4)CCC3=O` [Example 15], the MIC ([1]; read-out: MIC* (48 hs), strain 3184, CDR1 overexpression, Fluconazole- resistant) was 0.66 µM (≈ 0.247 µg/mL), the MIC ([1]; strain ATCC36082, WT, Susceptible, read-out: MIC* (24 hs)) was 0.04 µM (≈ 0.015 µg/mL) and the MIC ([1]; strain ATCC36082, WT, Susceptible, read-out: MIC* (48 hs)) was 0.04 µM (≈ 0.015 µg/mL). For the same compound, the MIC ([1]; strain SC5314, WT, Susceptible, read-out: MIC* (24 hs)) was 0.04 µM (≈ 0.015 µg/mL), the MIC ([1]; strain SC5314, WT, Susceptible, read-out: MIC* (48 hs)) was 0.08 µM (≈ 0.03 µg/mL) and the “yeast MICs lower than Aspergillus spp. MIC, on average” value [2] was 8 fold. The MIC ([2]; A. flavus and A. terreus strains, read-out: 24 hs MIC Geom. Means) was 0.4 µM (≈ 0.15 µg/mL), the MIC ([3]; read-out: MIC* (24 hs)) was 0.33 µM (≈ 0.124 µg/mL) and the MIC ([3]; read-out: MIC* (48 hs)) was 0.33 µM (≈ 0.124 µg/mL).
